Test results from patent publication US6455520B1, “Benzamide derivatives and their use as cytokine inhibitors” (Astra Zeneca AB, priority 1998, dated 2002).

Columns and labels:
[1] = system: TNFα production in human whole blood; assay: Human Whole Blood test: inhibition of LPS-stimulated TNFα production; assay type: cell-based
Protocol: The ability of the compounds of this invention to inhibit TNFα production was also assessed in a human whole blood assay. Human whole blood secretes TNFα when stimulated with LPS. This property of blood forms the basis of an assay which is used as a secondary test for compounds which profile as active in the PBMC test.
Heparinised (10 units/ml) human blood was obtained from volunteers. 160 μl whole blood were added to 96 well round-bottom plates (Corning 25850). Compounds were solubilised and serially diluted in RPMI 1640 medium (Gibco) supplemented with 50 units/ml penicillin, 50 μg/ml streptomycin and 2 mM glutamine, as detailed above. 20 μl of each test concentration was added to appropriate wells (triplicate cultures). 20 μl of RPMI 1640 medium supplemented with antibiotics and glutamine was added to control wells. Plates were incubated for 30 minutes at 37° C. (humidified incubator), prior to addition of 20 μl LPS (final concentration 10 μg/ml). RPMI 1640 medium was added to control wells. Six “LPS alone” and four “medium alone” controls were included on each plate. A known TNFα synthesis/secretion inhibitor was included in each test. Plates were incubated for 6 hours at 37° C. (humidified incubator). […] TNFα levels were measured by ELISA (see WO92/10190 and Current Protocols in Molecular Biology, vol 2 by Frederick M. Ausbel et al., John Wiley and Sons Inc.). […]

p38α = molecular target: T1, p38α (Homo sapiens, UniProt Q16539); assay: In vitro enzyme assay, p38α; assay type: biochemical; details: read-out: IC50 against p38α
T1 construct: c-myc (N); 6His (N); made in house; host or cells: E. coli (PET vectors)
T1 sequence (Q16539 whole entry): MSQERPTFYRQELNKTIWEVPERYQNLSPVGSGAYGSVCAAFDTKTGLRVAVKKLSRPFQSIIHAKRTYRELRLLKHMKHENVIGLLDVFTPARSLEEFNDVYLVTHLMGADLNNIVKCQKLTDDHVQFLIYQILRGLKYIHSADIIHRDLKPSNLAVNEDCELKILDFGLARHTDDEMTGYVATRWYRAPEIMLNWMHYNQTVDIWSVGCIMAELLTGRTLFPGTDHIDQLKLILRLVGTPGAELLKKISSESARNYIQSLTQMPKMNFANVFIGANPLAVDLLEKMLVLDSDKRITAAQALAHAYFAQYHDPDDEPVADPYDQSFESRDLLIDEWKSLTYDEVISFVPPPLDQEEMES
Protocol: The ability of compounds of the invention to inhibit the enzyme p38 kinase was assessed. Activity of test compounds against each of the p38α and p38β isoforms of the enzyme was determined.
Human recombinant MKK6 (GenBank Accesion Number G1209672) was isolated from Image clone 45578 (Genomics, 1996, 33, 151) and utilised to produce protein in the form of a GST fusion protein in a pGEX vector using analogous procedures to those disclosed by J. Han et al., Journal of Biological Chemistry, 1996, 271, 2886-2891. p38α (GenBank Accession Number G529039) and p38β (GenBank Accession Number G1469305) were isolated by PCR amplification of human lymphoblastoid cDNA (GenBank Accession Number GM1416) and human foetal brain cDNA [synthesised from mRNA (Clontech, catalogue no. 6525-1) using a Gibco superscript cDNA synthesis kit] respectively using oligonucleotides designed for the 5′ and 3′ ends of the human p38α and p38β genes using analogous procedures to those described by J. Han et al., Biochimica et Biophysica Acta, 1995, 1265, 224-227 and Y. Jiang et al., Journal of Biological Chemistry, 1996, 271, 17920-17926.
Both p38 protein isoforms were expressed in e coli in PET vectors. Human recombinant p38α and p38β isoforms were produced as 5′ c-myc, 6His tagged proteins. Both MKK6 and the p38 proteins were purified using standard protocols: the GST MKK6 was purified using a glutathione sepharose column and the p38 proteins were purified using nickel chelate columns.
The p38 enzymes were activated prior to use by incubation with MKK6 for 3 hours at 30° C. The unactivated coli-expressed MKK6 retained sufficient activity to fully activate both isoforms of p38. The activation incubate comprised p38α (10 μl of 10 mg/ml) or p38β (10 μl of 5 mg/ml) together with MKK6 (10 μl of 1 mg/ml), ‘Kinase buffer’ [100 μl; pH 7.4 buffer comprising Tris (50 mM), EGTA (0.1 mM), sodium orthovanadate (0.1 mM) and β-mercaptoethanol (0.1%)] and MgATP (30 μl of 50 mM Mg(OCOCH3)2 and 0.5 mM ATP). This produced enough activated p38 enzyme for 3 Microtiter plates.
Test compounds were solubilised in DMSO and 10 μl of a 1:10 diluted sample in ‘Kinase Buffer’ was added to a well in a Microtiter plate. For single dose testing, the compounds were tested at 10 μM. ‘Kinase Assay Mix’ [30 μl; comprising Myelin Basic Protein (Gibco BRL cat. no. 1322B-010; 1 ml of a 3.33 mg/ml solution in water), activated p38 enzyme (50 μl ) and ‘Kinase Buffer’ (2 ml)] was then added followed by ‘Labelled ATP’ [10 μl; comprising 50 μM ATP, 0.1 μCi ^33P ATP (Amersham International cat. no. BF1000) and 50 mM Mg(OCOCH3)2]. The plates were incubated at room temperature with gentle agitation. Plates containing p38α were incubated for 90 min and plates containing p38β P were incubated for 45 min. Incubation was stopped by the addition of 50 μl of 20% trichloroacetic acid (TCA). The precipitated protein was phosphorylated by p38 kinase and test compounds were assessed for their ability to inhibit this phosphorylation. The plates were filtered using a Canberra Packard Unifilter and washed with 2% TCA, dried overnight and counted on a Top Count scintillation counter.
Test compounds were tested initially at a single dose and active compounds were retested to allow IC50 values to be determined.

[2] = system: TNFα production by human peripheral blood mononuclear cells; assay: PBMC test: inhibition of LPS-stimulated TNFα production; assay type: cell-based
Protocol: The ability of compounds of this invention to inhibit TNFα production was assessed by using human peripheral blood mononuclear cells which synthesise and secrete TNFα when stimulated with lipopolysaccharide.
Peripheral blood mononuclear cells (PBMC) were isolated from heparinised (10 units/ml heparin) human blood by density centrifugation (Lymphoprep™; Nycomed). Mononuclear cells were resuspended in culture medium [RPMI 1640 medium (Gibco) supplemented with 50 units/ml penicillin, 50 μg/ml streptomycin, 2 mM glutamine and 1% heat-inactivated human AB serum (Sigma H-1513)]. Compounds were solubilised in DMSO at a concentration of 50 mM, diluted 1:100 in culture medium and subsequently serial dilutions were made in culture medium containing 1% DMSO. PBMCs (2.4×10^5 cells in 160 μl culture medium) were incubated with 20 μl of varying concentrations of test compound (triplicate cultures) or 20 μl culture medium containing 1% DMSO (control wells) for 30 minutes at 37° C. in a humidified (5%CO2/95% air) incubator (Falcon 3072; 96 well flat-bottom tissue culture plates). 20 μl lipopolysaccharide [LPS E.Coli 0111:B4 (Sigma L-4130), final concentration 10 μg/ml] solubilised in culture medium was added to appropriate wells. 20 μl culture medium was added to “medium alone” control wells. Six “LPS alone” and four “medium alone” controls were included on each 96 well plate. Varying concentrations of a known TNFα inhibitor were included in each test, i.e. an inhibitor of the PDE Type IV enzyme (for example see Semmler, J. Wachtel. H and Endres, S., Int. J. Immunopharmac. (1993), 15(3), 409-413) or an inhibitor of pro TNFα convertase (for example, see McGeehan, G. M. et al. Nature (1994) 370, 558-561). Plates were incubated for 7 hours at 37° C. (humidified incubator) after which 100 μl of the supernatant was removed from each well and stored at −70° C. (96 well round-bottom plates; Corning 25850). TNFα levels were determined in each sample using a human TNFα ELISA (see WO92/10190 and Current Protocols in Molecular Biology, vol 2 by Frederick M. Ausbel et al., John Wiley and Sons Inc.).
% inhibition=(LPS alone−medium alone)−(test concentration−medium alone)/(LPS alone−medium alone)×100

| Compound | melting point [°C] | IC50 [1] [nM] | IC50 (p38α) [nM] | IC50 [2] [nM] |
| --- | --- | --- | --- | --- |
| Cc1ccc(NC(=O)c2ccc3ncccc3c2)cc1NC(=O)c1cccc(OCCN2CCOCC2)c1 [Example 13, N-{3-[3-(2-morpholinoethoxy)benzamido]-4-methylphenyl}quinoline-6-carboxamide] | 216 to 217 |  |  |  |
| CCN(CC)Cc1ccc(C(=O)Nc2cc(NC(=O)c3ccnc(N4CCOCC4)c3)ccc2C)cc1 [N-[3-(4-diethylaminomethylbenzamido)-4-methylphenyl]-2-morpholinopyridine-4-carboxamide] |  | ~10000 | ~200 | < 500 |
| Cc1ccc(NC(=O)c2ccnc(N3CCCC3)c2)cc1NC(=O)c1cccc(CN2CCN(C)CC2)c1 [N-{3-[3-(4-methylpiperazin-1-ylmethyl)benzamido]-4-methylphenyl}-2-pyrrolidin-1-ylpyridine-4-carboxamide] |  |  | ~100 | < 500 |
| Cc1ccc(NC(=O)c2ccno2)cc1NC(=O)c1cccc(CN2CCN(C)CC2)c1 [N-{4-methyl-3-[3-(4-methylpiperazin-1-ylmethyl)benzamido]phenyl}isoxazole-5-carboxamide] |  |  | ~800 | ~1000 |
| Cc1ccc(NC(=O)c2ccnc(N3CCOCC3)c2)cc1NC(=O)c1cccc(CN2CCN(C)CC2)c1 [N-{3-[3-(4-methylpiperazin-1-ylmethyl)benzamido]-4-methylphenyl}-2-morpholinopyridine-4-carboxamide] |  | ~7000 | ~100 | < 500 |
| Cc1ccc(NC(=O)c2ccco2)cc1NC(=O)c1cccc(CN2CCN(C)CC2)c1 [N-{4-methyl-3-[3-(4-methylpiperazin-1-ylmethyl)benzamido]phenyl}furan-2-carboxamide] |  |  | ~1000 | ~4000 |
